In PubChem BioAssay (NCI):
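Dose response: 5 concentrations. Exposure: 48 h. Format: 96-well plates. Endpoint: linear interpolation; highest concentration if not reached. The concentration for full growth arrest is given as TGI.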

Experiments:
Experiment in all cases: NCI anticancer screen, dose series, 48 h
EKVX NSCLC = system: EKVX NSCLC
HCT-116 colon = system: HCT-116 colon
HOP-62 NSCLC = system: HOP-62 NSCLC
IGROV1 ovarian = system: IGROV1 ovarian
KM20L2 colon = system: KM20L2 colon
LXFL 529 NSCLC = system: LXFL 529 NSCLC
M19-MEL melanoma = system: M19-MEL melanoma
OVCAR-8 ovarian = system: OVCAR-8 ovarian
SNB-75 CNS = system: SNB-75 CNS
SNB-78 CNS = system: SNB-78 CNS
U251 CNS = system: U251 CNS

## CN(C(=O)C12C3C4C1C1C2C3C41C(=O)C(C)(C)C)C(C)(C)C (stereo not given)
EKVX NSCLC
  TGI: > 100 µM
HCT-116 colon
  TGI: > 100 µM
HOP-62 NSCLC
  TGI: > 100 µM
IGROV1 ovarian
  TGI: > 100 µM
KM20L2 colon
  TGI: > 100 µM
LXFL 529 NSCLC
  TGI: > 100 µM
M19-MEL melanoma
  TGI: > 100 µM
OVCAR-8 ovarian
  TGI: > 100 µM
SNB-75 CNS
  TGI: > 100 µM
SNB-78 CNS
  TGI: > 100 µM
U251 CNS
  TGI: > 100 µM

## N#CC(C(=N/O)/C(=N/O)C(C#N)c1ccc(Cl)cc1)c1ccc(Cl)cc1 (stereo not given)
EKVX NSCLC
  TGI: > 100 µM
HCT-116 colon
  TGI: > 100 µM
HOP-62 NSCLC
  TGI: > 100 µM
IGROV1 ovarian
  TGI: > 100 µM
KM20L2 colon
  TGI: > 100 µM
LXFL 529 NSCLC
  TGI: > 100 µM
M19-MEL melanoma
  TGI: > 100 µM
OVCAR-8 ovarian
  TGI: > 100 µM
SNB-75 CNS
  TGI: > 100 µM
SNB-78 CNS
  TGI: > 100 µM
U251 CNS
  TGI: > 100 µM

## CCCCNC1=C(C(=O)OCC)C(=O)CO1
EKVX NSCLC
  TGI: > 100 µM
HOP-62 NSCLC
  TGI: > 100 µM
IGROV1 ovarian
  TGI: > 100 µM
KM20L2 colon
  TGI: > 100 µM
LXFL 529 NSCLC
  TGI: > 100 µM
M19-MEL melanoma
  TGI: > 100 µM
OVCAR-8 ovarian
  TGI: > 100 µM
SNB-75 CNS
  TGI: > 100 µM
U251 CNS
  TGI: > 100 µM

## CC1(Cl)C(=O)NC(=O)N(C2CC(N=[N+]=[N-])C(CO)O2)C1N=[N+]=[N-] (stereo not given)
EKVX NSCLC
  TGI: > 100 µM
HOP-62 NSCLC
  TGI: > 100 µM
IGROV1 ovarian
  TGI: > 100 µM
KM20L2 colon
  TGI: > 100 µM
LXFL 529 NSCLC
  TGI: > 100 µM
M19-MEL melanoma
  TGI: > 100 µM
OVCAR-8 ovarian
  TGI: > 100 µM
SNB-75 CNS
  TGI: > 100 µM
U251 CNS
  TGI: > 100 µM

## COC(=O)C1=C(C(=O)OC)C2C=CC1C1C(Cl)=C(Cl)C21 (stereo not given)
EKVX NSCLC
  TGI: > 100 µM
HOP-62 NSCLC
  TGI: > 100 µM
IGROV1 ovarian
  TGI: > 100 µM
KM20L2 colon
  TGI: > 100 µM
LXFL 529 NSCLC
  TGI: > 100 µM
M19-MEL melanoma
  TGI: > 100 µM
OVCAR-8 ovarian
  TGI: > 100 µM
SNB-75 CNS
  TGI: > 100 µM
U251 CNS
  TGI: > 100 µM

## COc1ccc2[nH]c3c(C)c4c(c(C)c3c2c1)CN(C)CC4
HCT-116 colon
  TGI: 11.8 µM
HOP-62 NSCLC
  TGI: 32.4 µM
IGROV1 ovarian
  TGI: 35.9 µM
KM20L2 colon
  TGI: 34.8 µM
LXFL 529 NSCLC
  TGI: 36.1 µM
M19-MEL melanoma
  TGI: 31.6 µM
OVCAR-8 ovarian
  TGI: 25.8 µM
SNB-75 CNS
  TGI: 36.4 µM
SNB-78 CNS
  TGI: 80.6 µM
U251 CNS
  TGI: 32 µM

## COC(=O)CC(=O)C[P+](c1ccccc1)(c1ccccc1)c1ccccc1
EKVX NSCLC
  TGI: > 218 µM
HCT-116 colon
  TGI: > 218 µM
HOP-62 NSCLC
  TGI: > 218 µM
IGROV1 ovarian
  TGI: > 218 µM
KM20L2 colon
  TGI: > 218 µM
LXFL 529 NSCLC
  TGI: > 218 µM
M19-MEL melanoma
  TGI: > 218 µM
OVCAR-8 ovarian
  TGI: > 218 µM
U251 CNS
  TGI: > 218 µM

## CCCCCCCCCC[C@@H](O)[C@@H]1CC[C@H]([C@H]2CC[C@@H]([C@@H](O)CCCCCCCCCC[C@H]3CC(CC(C)=O)C(=O)O3)O2)O1 (stereo not given in full)
EKVX NSCLC
  TGI: 78 µM
HCT-116 colon
  TGI: 17.8 µM
HOP-62 NSCLC
  TGI: 31 µM
IGROV1 ovarian
  TGI: 39.2 µM
KM20L2 colon
  TGI: 52.7 µM
LXFL 529 NSCLC
  TGI: 19.5 µM
M19-MEL melanoma
  TGI: 46.5 µM
OVCAR-8 ovarian
  TGI: 37.8 µM
SNB-75 CNS
  TGI: 26.9 µM
SNB-78 CNS
  TGI: 37.2 µM
U251 CNS
  TGI: 43.8 µM

## CC12CC[C@@H](C(C)(C)O)C1[C@@H](O)CC1(C)C2CCC2[C@@]3(C)CC[C@H](O)C(C)(C)C3C(O)C[C@]21C (stereo not given in full)
EKVX NSCLC
  TGI: 29 µM
HCT-116 colon
  TGI: 31.3 µM
IGROV1 ovarian
  TGI: 39.5 µM
KM20L2 colon
  TGI: 28.3 µM
LXFL 529 NSCLC
  TGI: 29.4 µM
M19-MEL melanoma
  TGI: 52.1 µM
OVCAR-8 ovarian
  TGI: 41.2 µM
SNB-78 CNS
  TGI: 38.8 µM
U251 CNS
  TGI: 40 µM

## CCOc1ccc2c(c1)[n+]([O-])c(S(=O)(=O)c1ccc(C)cc1)c(N)[n+]2[O-]
EKVX NSCLC
  TGI: > 100 µM
HCT-116 colon
  TGI: > 100 µM
HOP-62 NSCLC
  TGI: > 100 µM
IGROV1 ovarian
  TGI: > 100 µM
KM20L2 colon
  TGI: > 100 µM
LXFL 529 NSCLC
  TGI: > 100 µM
M19-MEL melanoma
  TGI: > 100 µM
OVCAR-8 ovarian
  TGI: > 100 µM
SNB-75 CNS
  TGI: > 100 µM
SNB-78 CNS
  TGI: > 100 µM
U251 CNS
  TGI: > 100 µM

## Cc1ccc(C)c(NC(=O)CC/C(=N\NC(=O)C(=O)NN)C(C)C(=O)c2ccc(O)cc2)c1 (stereo not given)
EKVX NSCLC
  TGI: > 100 µM
HCT-116 colon
  TGI: > 100 µM
HOP-62 NSCLC
  TGI: > 100 µM
IGROV1 ovarian
  TGI: > 100 µM
KM20L2 colon
  TGI: > 100 µM
LXFL 529 NSCLC
  TGI: > 100 µM
M19-MEL melanoma
  TGI: > 100 µM
SNB-75 CNS
  TGI: > 100 µM
SNB-78 CNS
  TGI: > 100 µM
U251 CNS
  TGI: > 100 µM

## COC(=O)CC(C(C(=O)OC)C(=O)OC)N1C(=O)OCC1c1ccccc1 (stereo not given)
EKVX NSCLC
  TGI: > 100 µM
HCT-116 colon
  TGI: > 100 µM
HOP-62 NSCLC
  TGI: > 100 µM
IGROV1 ovarian
  TGI: > 100 µM
KM20L2 colon
  TGI: > 100 µM
LXFL 529 NSCLC
  TGI: > 100 µM
M19-MEL melanoma
  TGI: > 100 µM
OVCAR-8 ovarian
  TGI: > 100 µM
SNB-75 CNS
  TGI: > 100 µM
U251 CNS
  TGI: > 100 µM

## CC1=C(C(=O)Nc2ccc([N+](=O)[O-])cc2)C(c2ccc(N(C)C)cc2)C(C(=O)Nc2ccc([N+](=O)[O-])cc2)=C(C)N1
EKVX NSCLC
  TGI: 90.4 µM
HOP-62 NSCLC
  TGI: 27.5 µM
IGROV1 ovarian
  TGI: 61.9 µM
KM20L2 colon
  TGI: 43.4 µM
LXFL 529 NSCLC
  TGI: 71.4 µM
M19-MEL melanoma
  TGI: 33.2 µM
OVCAR-8 ovarian
  TGI: 97.9 µM
SNB-75 CNS
  TGI: 59.6 µM
SNB-78 CNS
  TGI: > 100 µM
U251 CNS
  TGI: 66.5 µM

## CC(=O)Nc1ccccc1Sc1ccccc1
EKVX NSCLC
  TGI: > 100 µM
HCT-116 colon
  TGI: > 100 µM
HOP-62 NSCLC
  TGI: > 100 µM
IGROV1 ovarian
  TGI: > 100 µM
KM20L2 colon
  TGI: > 100 µM
LXFL 529 NSCLC
  TGI: > 100 µM
M19-MEL melanoma
  TGI: > 100 µM
OVCAR-8 ovarian
  TGI: > 100 µM
SNB-75 CNS
  TGI: > 100 µM
SNB-78 CNS
  TGI: > 100 µM
U251 CNS
  TGI: > 100 µM

## N#C/C(=C/c1ccsc1)C(=O)c1ccccc1
EKVX NSCLC
  TGI: > 100 µM
HCT-116 colon
  TGI: > 100 µM
HOP-62 NSCLC
  TGI: > 100 µM
KM20L2 colon
  TGI: > 100 µM
LXFL 529 NSCLC
  TGI: > 100 µM
M19-MEL melanoma
  TGI: > 100 µM
OVCAR-8 ovarian
  TGI: > 100 µM
SNB-75 CNS
  TGI: > 100 µM
SNB-78 CNS
  TGI: > 100 µM
U251 CNS
  TGI: > 100 µM

## COc1ccccc1C1C(C(=O)Nc2ccccc2)=C(C)NC(C)=C1C(=O)Nc1ccccc1
EKVX NSCLC
  TGI: > 100 µM
HCT-116 colon
  TGI: > 100 µM
HOP-62 NSCLC
  TGI: > 100 µM
IGROV1 ovarian
  TGI: > 100 µM
KM20L2 colon
  TGI: > 100 µM
LXFL 529 NSCLC
  TGI: > 100 µM
M19-MEL melanoma
  TGI: > 100 µM
OVCAR-8 ovarian
  TGI: > 100 µM
SNB-75 CNS
  TGI: > 100 µM
SNB-78 CNS
  TGI: > 100 µM
U251 CNS
  TGI: > 100 µM

## OCCC1(O)CCC(O)CC1 (stereo not given)
EKVX NSCLC
  TGI: > 100 µM
HCT-116 colon
  TGI: > 100 µM
HOP-62 NSCLC
  TGI: > 100 µM
IGROV1 ovarian
  TGI: > 100 µM
LXFL 529 NSCLC
  TGI: > 100 µM
M19-MEL melanoma
  TGI: > 100 µM
OVCAR-8 ovarian
  TGI: > 100 µM
SNB-75 CNS
  TGI: > 100 µM
SNB-78 CNS
  TGI: > 100 µM
U251 CNS
  TGI: > 100 µM

## Cc1ccc(S(=O)(=O)C(CC(=O)N2CCCC2)C(=O)c2ccccc2)cc1 (stereo not given)
HCT-116 colon
  TGI: > 100 µM
HOP-62 NSCLC
  TGI: > 100 µM
IGROV1 ovarian
  TGI: > 100 µM
LXFL 529 NSCLC
  TGI: > 100 µM
OVCAR-8 ovarian
  TGI: > 100 µM
SNB-75 CNS
  TGI: > 100 µM
SNB-78 CNS
  TGI: > 100 µM
U251 CNS
  TGI: > 100 µM

## O=c1[nH]n2c(=O)cc[nH]c2c1-c1nnns1
EKVX NSCLC
  TGI: > 100 µM
HCT-116 colon
  TGI: > 100 µM
HOP-62 NSCLC
  TGI: > 100 µM
IGROV1 ovarian
  TGI: > 100 µM
KM20L2 colon
  TGI: > 100 µM
LXFL 529 NSCLC
  TGI: > 100 µM
M19-MEL melanoma
  TGI: > 100 µM
SNB-75 CNS
  TGI: > 100 µM
SNB-78 CNS
  TGI: > 100 µM
U251 CNS
  TGI: > 100 µM

## Cc1cc2c(cc1C)[n+](=O)c(C(=O)CC(=O)C(=O)Nc1c(C(C)C)cccc1C(C)C)c(C)n2[O-]
EKVX NSCLC
  TGI: > 100 µM
HCT-116 colon
  TGI: > 100 µM
HOP-62 NSCLC
  TGI: > 100 µM
IGROV1 ovarian
  TGI: > 100 µM
KM20L2 colon
  TGI: > 100 µM
LXFL 529 NSCLC
  TGI: > 100 µM
M19-MEL melanoma
  TGI: > 100 µM
OVCAR-8 ovarian
  TGI: > 100 µM
SNB-75 CNS
  TGI: > 100 µM
SNB-78 CNS
  TGI: > 100 µM
U251 CNS
  TGI: > 100 µM
